US20260131107A1, “CATHETERS” (ConvaTec Limited, priority 2023, published 2026)

What was measured:
[1] = system: ESBL Producing Klebsiella pneumoniae NCTC 13465; assay: Direct inoculation method (Assessment 6a); format: cell-based; conditions: 250 ppm solution
Experimental: (§1) Representative colonies from an 18-24 hour challenge culture plate were dispersed in a 500 µl aliquot of maximum recovery diluent (MRD) to obtain an optical density (OD540 nm) equivalent to approximately I×lO^8 CFU/ml. This was diluted to obtain a working concentration of I×lO^7 CFU/ml. A quantitative count was performed to confirm the inoculum level.
(§2) The bacteria tested were Escherichia coli NCIMB 14067, ESBL Producing Klebsiella pneumoniae NCTC 13465, Enterococcus faecalis NCTC 12201, Proteus mirabilis NCTC 9559 and Pseudomonas aeruginosa NCIMB 8626, which each are commonly associated with causing CAUTI.
(§3) 5 pl of the I×lO^7 CFU/ml challenge suspension was added to a 500 pl aliquot of hypochlorous acid solution (250 ppm) (n=3 per challenge organism, per timepoint) and mixed to form a suspension.
(§4) Following 10 seconds, 1 minute and 2 minutes from adding the challenge suspension to the aliquot of hypochlorous acid, samples were taken from the suspension to establish the number of challenge organisms remaining. This was performed by removing 100 pl volumes and transferring to 0.9 ml and 9.9 ml DENB (for 1:10 and 1:100 dilutions respectively). Appropriate serial dilutions were performed and inoculated onto pre-dried Tryptone Soy Agar (TSA) plates to establish the numbers remaining.

[2] = system: Enterococcus faecalis NCTC 12201; assay: Direct inoculation method (Assessment 6a); format: cell-based; conditions: 250 ppm solution
Experimental: as §1, §2, §3, §4

[3] = system: Escherichia coli NCIMB 14067; assay: Direct inoculation method (Assessment 6a); format: cell-based; conditions: 250 ppm solution
Experimental: as §1, §2, §3, §4

[4] = system: Proteus mirabilis NCTC 9559; assay: Direct inoculation method (Assessment 6a); format: cell-based; conditions: 250 ppm solution
Experimental: as §1, §2, §3, §4

[5] = system: Pseudomonas aeruginosa NCIMB 8626; assay: Direct inoculation method (Assessment 6a); format: cell-based; conditions: 250 ppm solution
Experimental: as §1, §2, §3, §4

[6] = system: Escherichia coli NCIMB 14067; assay: Antimicrobial activity along the catheter method (Assessment 6b); format: cell-based; conditions: concentration 300 ppm or above; each section of GentleCath Air 2.0 CH14 catheter; two minutes
Experimental: as §1, with “in” for “in a 500 µl aliquot of”, “I×lO^4” for “I×lO^7”
The bacteria tested were Escherichia coli NCIMB 14067 which are bacteria that are commonly associated with causing CAUTI.
GentleCath Air 2.0 CH14 (manufactured by ConvaTec Inc.) intermittent urinary catheters were used for the assessment. Each catheter was prepared within a laminar flow cabinet to maintain sterility. In the assessment, each catheter was hydrated with a 100, 150, 200, 300, 675 or 1000 ppm hypochlorous acid solution. A further catheter was hydrated with sterile deionised water (SDW) and was used as a control.
Enough samples were prepared for n=3 and controls for n=1 per challenge organism.
Each catheter was hydrated with a hypochlorous solution as described above, as per the IFU, and removed from its packaging.
Each catheter was cut into three sections, each section having a length of 2.5 cm, beginning at the tip of the catheter (section 1) and ending proximal to the handle of the catheter (section 3). […]

E. coli NCIMB 14067 [7] = assay: Antimicrobial residual test (Assessment 6c); format: cell-based, Escherichia coli; conditions: for Antimicrobial residual test result (growth of challenge organism): 40 µl on sterile filter
Experimental: (§5) Representative colonies from an 18-24 hour challenge culture plate were dispersed in maximum recovery diluent (MRD) to obtain an optical density (OD540 nm) equivalent to approximately I×lO^8 CFU/ml. This was diluted to obtain a working concentration of I×lO^6 CFU/ml. A quantitative count was performed to confirm the inoculum level. The bacteria tested were Escherichia coli NCIMB 14067, Enterococcus faecalis NCTC 12201, which each are commonly associated with causing CAUTI. 40 pl of a hypochlorous acid solution (250 ppm), representative of the amount of hypochlorous acid that is left on a catheter following hydration, was placed onto sterile filters. A 40 pl volume of maximum recovery diluent (MRD) was placed onto a further sterile filter as a negative control. A 40 pl volume of approximate 2% […] was placed onto a further sterile filter as a positive control. The filters used were Grade 427 mm Whatman Filters. Following timepoints of 0 minutes, 30 minutes and 4 hours from adding the hypochlorous acid solutions and control to respective sterile filters, each sterile filter was then inoculated with lOpl of IxlO^6 CFU/ml challenge suspension of bacteria, prepared as described above, and left undisturbed for two minutes (to represent approximate urination time). Following the two minutes, the filters were homogenised in Dey-Engley Neutralising Broth (DENB) and appropriate serial dilutions were performed and inoculated onto pre-dried Tryptone Soy Agar (TSA) plates to establish the bacteria numbers remaining.

E. faecalis NCTC 12201 = assay: Antimicrobial residual test (Assessment 6c); format: cell-based, Enterococcus faecalis; conditions: for Antimicrobial residual test result (growth of challenge organism): 40 µl on sterile filter
Experimental: as §5

E. coli NCIMB 14067 [8] = assay: Antimicrobial efficacy of very low hypochlorous acid concentrations, suspension test (Further Assessment 2); format: cell-based, Escherichia coli; conditions: for bacterial recovery: 10 ppm solution; for numbers of bacteria recovered: after 30 seconds
Experimental: The antimicrobial efficacy of hypochlorous acid was tested at even lower concentrations (10, 25, and 50 ppm) against the challenging organism E. coli NCIMB 14067. The representative colonies of E. coli NCIMB 14067 were dispersed in maximum recovery diluent (MRD) to obtain an optical density (OD540 nm) equivalent to approximately […]. A quantitative plate count was performed on this suspension to determine the total number of viable organisms inoculated. A new suspension was prepared for each concentration tested. A 1000 ppm hypochlorous acid solution was diluted in sterile deionised water to provide the respective 10, 25 and 50 ppm hypochlorous acid solutions. The hypochlorous acid samples were aliquoted into 9 mL volumes and 1 mL of the challenge organism suspension was added and mixed (the final number of bacteria present is now approximately 1×10^6 CFU/mL). Following 5, 30 seconds, 1, 2, and 5 minutes, 100 pL volumes were sampled and transferred to 0.9 mL and 9.9 mL of Dey-Engley Neutralising Broth (DENB) (to provide a 1:10 and 1:100 dilution respectively), and total viable counts were performed to establish the amount present. The plates were left to dry before being inverted and incubated at 35+3° C. for at least 48 hours. A negative control was also tested whereby 1 mL of the challenge organism suspension was added to 9 mL of MRD and tested as previously described. Following the incubation period, the number of CFUs were counted on the most appropriate dilution for each sample i.e. between 25-250 CFU/plate.

[9] = system: Enterococcus faecalis NCTC 12201; assay: In vitro direct inoculation method, sulfanilamide comparison (Further Assessment 3); format: cell-based
Experimental: (§6) An in vitro direct inoculation method was used to assess the antimicrobial activity of sulfanilamide in an intermittent urinary catheter scenario against […] Escherichia coli NCIMB 14067 and […] Enterococcus faecalis NCTC 12201; two microorganisms associated with urinary tract infections. Sulfanilamide concentrations of 0.1% and 0.01% were tested and bacterial levels monitored over a period of 5 minutes. Representative colonies of the challenge microorganisms, from an 18-24 hour challenge culture plate, were dispersed in MRD to obtain an optical density (OD540 nm) equivalent to approximately 1×10^8 CFU/mL. This was diluted to obtain a working concentration of 1×10^6 CFU/mL. A quantitative count was performed to confirm the inoculum level. The challenge organism was prepared in MRD to a concentration of approximately 1×10^6 CFU/mL. This suspension was added in a 1 mL volume to 9 mL of sample (n=3 per sample, n=2 per control) in a sterile 30 mL universal and pipetted up and down to mix. Following each testing period, 5 seconds, 30 seconds, 1 minute, 2 minutes and 5 minutes, 100 μL of the test solution was transferred to 0.9 mL and 9.9 mL volumes of DENB (1:10 and 1:100 dilutions, respectively). The most appropriate dilutions were inoculated (100 pL) onto duplicate pre-dried (tryptone soy agar) TSA plates and the inoculum spread using separate sterile L-shaped spreaders (for 10-1 and 10-2 dilutions, 0.5 mL were placed onto duplicate plates). The TSA plates were allowed to dry before being inverted and incubated at 35±3° C. for at least 48 hours. Following the incubation period, the number of bacterial colonies were counted on the most appropriate dilution for each dressing type i.e. between 25-250 CFU/plate. The samples tested were: 0.1% sulfanilamide in sterile deionised water (SDW); 0.01% sulfanilamide in SDW; 100 ppm hypochlorous acid in SDW; and a SDW control.

[10] = system: Escherichia coli NCIMB 14067; assay: as above; format: cell-based
Experimental: as §6

[11] = inoculated at 0 hour (plus 2 minutes)
[12] = inoculated at 30 minutes (plus 2 minutes)
[13] = inoculated at 4 hours (plus 2 minutes)
[14] = 250 ppm solution on sterile filter
[15] = 100 ppm in SDW, within 5 seconds and for the remaining testing period (to 5 minutes)
[16] = 0.1% and 0.01% in SDW, any timepoint from 5 seconds to 5 minutes

## OCl [hypochlorous acid]
[1]; 10 seconds
  Bacterial numbers reduced to the detection limit (>5 log reduction): Yes
[1]; 1 minute
  Bacterial numbers reduced to the detection limit (>5 log reduction): Yes
[1]; 2 minutes
  Bacterial numbers reduced to the detection limit (>5 log reduction): Yes
[2]; 10 seconds
  Bacterial numbers reduced to the detection limit (>5 log reduction): Yes
[2]; 1 minute
  Bacterial numbers reduced to the detection limit (>5 log reduction): Yes
[2]; 2 minutes
  Bacterial numbers reduced to the detection limit (>5 log reduction): Yes
[3]; 10 seconds
  Bacterial numbers reduced to the detection limit (>5 log reduction): Yes
[3]; 1 minute
  Bacterial numbers reduced to the detection limit (>5 log reduction): Yes
[3]; 2 minutes
  Bacterial numbers reduced to the detection limit (>5 log reduction): Yes
[4]; 10 seconds
  Bacterial numbers reduced to the detection limit (>5 log reduction): Yes
[4]; 1 minute
  Bacterial numbers reduced to the detection limit (>5 log reduction): Yes
[4]; 2 minutes
  Bacterial numbers reduced to the detection limit (>5 log reduction): Yes
[5]; 10 seconds
  Bacterial numbers reduced to the detection limit (>5 log reduction): Yes
[5]; 1 minute
  Bacterial numbers reduced to the detection limit (>5 log reduction): Yes
[5]; 2 minutes
  Bacterial numbers reduced to the detection limit (>5 log reduction): Yes
[6]
  bacterial cell death: greater than 93%
E. coli NCIMB 14067 [7]; [11]
  Antimicrobial residual test result (growth of challenge organism): No growth
E. coli NCIMB 14067 [7]; [12]
  Antimicrobial residual test result (growth of challenge organism): Growth
E. coli NCIMB 14067 [7]; [13]
  Antimicrobial residual test result (growth of challenge organism): Growth
E. coli NCIMB 14067 [7]; [14]
  time by which antimicrobial activity was exhausted: ≤ 30 min
E. faecalis NCTC 12201; [11]
  Antimicrobial residual test result (growth of challenge organism): No growth
E. faecalis NCTC 12201; [12]
  Antimicrobial residual test result (growth of challenge organism): Growth
E. faecalis NCTC 12201; [13]
  Antimicrobial residual test result (growth of challenge organism): Growth
E. faecalis NCTC 12201; [14]
  time by which antimicrobial activity was exhausted: ≤ 30 min
E. coli NCIMB 14067 [8]; 1 minute timepoint
  bacterial recovery: undetectable levels
E. coli NCIMB 14067 [8]; at 30 seconds
  bacterial recovery: over 10 CFU/mL
E. coli NCIMB 14067 [8]; 25 ppm solution
  numbers of bacteria recovered: undetectable numbers of bacteria
E. coli NCIMB 14067 [8]; 50 ppm solution
  numbers of bacteria recovered: undetectable numbers of bacteria
[9]; [15]
  challenge organism numbers: undetectable numbers
[10]; [15]
  challenge organism numbers: undetectable numbers

## Nc1ccc(S(N)(=O)=O)cc1 [sulfanilamide, reference compound]
[9]; [16]
  challenge organism numbers compared to the control: no decrease in challenge organism numbers
[10]; [16]
  challenge organism numbers compared to the control: no decrease in challenge organism numbers
